Results taken from patent publication US4191770A, “N1 -acyl-N2 -phenyldiaminopropanols and pharmaceutical compositions thereof” (Kali-Chemie Pharma GmbH, priority 1977, dated 1980).
Structures can show the parent of a compound that is named as a salt.

Tests used:
in vivo = conditions: mouse, po, single dose p.o., unfed NMRI mice, 7 days, read-out: Toxicity LD50 p.o.
Protocol: The acute 7-day-toxicity is determined after a single application per os in white NMRI-mice which had not been fed. The calculation of the LD50 is carried out by probitanalysis by means of electronic data processing (see L. Cavalli-Sforza, Gustav Fischer-Verlag, Stuttgart (1964), Grundbegriffe der Biometrie, p. 153).

[1] = tested on: indomethacine induced ulcers; experiment: Effectiveness against indomethacine-induced ulcers in the rat; assay type: in vivo, rats; conditions: for inhibition in vivo at 68 mg/kg: dosage 68 mg/kg p.o.; for inhibition in vivo at 75 mg/kg: dosage 75 mg/kg p.o.; for inhibition in vivo at 150 mg/kg: dosage 150 mg/kg p.o.
Protocol: 2. Effectiveness against indomethacineinduced ulcers in the rate (Modified test procedure according to
To at least 6 male rats, having a body-weight of from 170 to 220 g, dosages of the test compounds are administered orally in an amount of 0.5 ml of a suspension medium per 100 g animal body-weight. The animals of the blank control group receive the corresponding amount by volume of the suspension medium only. One hour after application of the test compounds, a dosage of 20 mg per kg of indomethacine contained in an amount of 0.5 ml of a suspension per 100 g animal body-weight, are orally applied to each animal for producing ulcers. 24 hours after the application of indomethacine, the animals are sacrificed.
The mean value and the standard deviation of the numbers of ulcers is calculated, and subsequently the inhibiting activity of the test compounds and a standard compound are calculated as percent inhibition compared with the blank control group.

secretion in the stomach = experiment: Effect on the secretion in the stomach of narcotized rats (determination of the pH-value); assay type: in vivo; conditions: for inhibition in vivo at 300 mg/kg: po, dosage 300 mg/kg p.o., narcotized rats, acetylcholine control = 100
Protocol: 3. Effect on the secretion in the stomach of narcotized rats (determinationof the pH-value)
The test is performed on narcotized (urethane narcosis) male rats, having a body-weight of 200-230 g. For this purpose N/4000-sodium hydroxide solution is perfused into the stomachs of rats at a rate of 1 ml per minute by means of a cardia- and pylorus-catheter. The pH value of the perfusate, which leaves the stomach by way of the pylorus catheter, is determined by means of a one-rod measuring system, and is continuously registered.
In order to perform a comparative control test, after a pre-run period of 20 minutes, 10 mg per kg of acetylcholine are applied intraperitoneously. The resulting comparative control value is defined as being 100.
For evaluation, the surface-integral is calculated numerically with the aid of the rule of Simpson. The degree of inhibition of the secretion is calculated from the difference between the surfaces before and after the application of the test compound.

[2] = Rattus norvegicus, po, 1 h before 20 mg/kg indomethacine, 24 h
[3] = at a low dosage, footnote of Table I

With `CN(CC(O)CNC(=O)c1ccccn1)c1ccc(Cl)cc1` (stereo not shown) [Compound 11, N1-picolinoyl-N2-methyl-N2-(4-chlorophenyl)-1,3-diaminopropan-2-ol] the LD50 at 168 h (in vivo) was 3300 mg/kg, the inhibition in vivo at 68 mg/kg [1, 2] was 71% and the inhibition in vivo at 300 mg/kg (secretion in the stomach; Rattus norvegicus) was 0%.
Compound `CN(CC(O)CNC(=O)C=Cc1ccccc1)c1ccc(Cl)cc1` (stereo not shown) [Compound 9, N1-cinnamoyl-N2-methyl-N2-(4-chlorophenyl)-1,3-diaminopropan-2-ol] has an LD50 at 168 h (in vivo) of over 6810 mg/kg, an inhibition in vivo at 68 mg/kg [1, 2] of 32% and an inhibition in vivo at 300 mg/kg (secretion in the stomach; Rattus norvegicus) of 0%.
In the case of `CCCN(CC(O)CNC(=O)c1ccc(OC)c(OC)c1)c1ccc(Cl)cc1` (stereo not shown) [Compound 17, N1-(3,4-dimethoxybenzoyl)-N2-propyl-N2-(4-chlorophenyl)-1,3-diaminopropan-2-ol], the LD50 at 168 h (in vivo) is reported as over 6810 mg/kg, the inhibition in vivo at 75 mg/kg [1, 2] is reported as 34% and the inhibition in vivo at 300 mg/kg (secretion in the stomach; Rattus norvegicus) is reported as 0%.
In the case of `CCCN(CC(O)CNC(=O)C1CCCCC1)c1ccccc1` (stereo not shown) [Compound 7, N1-cyclohexylcarbonyl-N2-propyl-N2-phenyl-1,3-diaminopropan-2-ol], the LD50 at 168 h (in vivo) is reported as over 1470 mg/kg, the inhibition in vivo at 150 mg/kg [1, 2] is reported as 34% and the inhibition in vivo at 300 mg/kg (secretion in the stomach; Rattus norvegicus) is reported as 0%.
`COc1ccc(C(=O)NCC(O)CN(C)c2ccc(Cl)c(Cl)c2)cc1OC` (stereo not shown) [Compound 16, N1-(3,4-dimethoxybenzoyl)-N2-methyl-N2-(3,4-dichlorophenyl)-1,3-diaminopropan-2-ol] showed an LD50 at 168 h (in vivo) of over 6810 mg/kg, an inhibition in vivo at 75 mg/kg [1, 2] of 38% and an inhibition in vivo at 300 mg/kg (secretion in the stomach; Rattus norvegicus) of 0%.
With `CN(CC(O)CNC(=O)Cc1ccccc1)c1ccc(Cl)cc1` (stereo not shown) [Compound 8, N1-phenacetyl-N2-methyl-N2-(4-chlorophenyl)-1,3-diaminopropan-2-ol] the LD50 at 168 h (in vivo) was 3860 mg/kg, the inhibition in vivo at 75 mg/kg [1, 2] was 26% and the inhibition in vivo at 300 mg/kg (secretion in the stomach; Rattus norvegicus) was 0%.
`COc1ccc(C=CC(=O)NCC(O)CN(C)c2ccc(Cl)cc2)cc1OC` (stereo not shown) [Compound 10, N1-(3,4-dimethoxycinnamoyl)-N2-methyl-N2-(4-chlorophenyl)-1,3-diaminopropan-2-ol] gave an LD50 at 168 h (in vivo) of over 6810 mg/kg, an inhibition in vivo at 75 mg/kg [1, 2] of 32% and an inhibition in vivo at 300 mg/kg (secretion in the stomach; Rattus norvegicus) of 0%.
`CN(CC(O)CNC(=O)C1CCCCC1)c1ccc(F)cc1` (stereo not shown) [Compound 6, N1-cyclohexylcarbonyl-N2-methyl-N2-(4-fluorophenyl)-1,3-diaminopropan-2-ol] showed an LD50 at 168 h (in vivo) of over 1470 mg/kg, an inhibition in vivo at 150 mg/kg [1, 2] of 40% and an inhibition in vivo at 300 mg/kg (secretion in the stomach; Rattus norvegicus) of 0%.
For `CCCCCC(=O)NCC(O)CN(C)c1ccc(F)cc1` (stereo not shown) [Compound 2, N1-hexanoyl-N2-methyl-N2-(4-fluorophenyl)-1,3-diaminopropan-2-ol], the LD50 at 168 h (in vivo) was 4320 mg/kg, the inhibition in vivo at 150 mg/kg [1, 2] was 44% and the inhibition in vivo at 300 mg/kg (secretion in the stomach; Rattus norvegicus) was 0%.
`CC(=O)NCC(O)CN(C)c1ccc(Cl)cc1` (stereo not shown) [Compound 1, N1-acetyl-N2-methyl-N2-(4-chlorophenyl)-1,3-diaminopropan-2-ol] showed an LD50 at 168 h (in vivo) of 2260 mg/kg, an inhibition in vivo at 150 mg/kg [1, 2] of 33% and an inhibition in vivo at 300 mg/kg (secretion in the stomach; Rattus norvegicus) of 0%.
With `CC(C)c1ccc(N(C)CC(O)CNC(=O)c2ccco2)cc1` (stereo not shown) [Compound 19, N1-furoyl-N2-methyl-N2-(4-isopropylphenyl)-1,3-diaminopropan-2-ol] the LD50 at 168 h (in vivo) was over 1470 mg/kg, the inhibition in vivo at 75 mg/kg [1, 2] was 31% and the inhibition in vivo at 300 mg/kg (secretion in the stomach; Rattus norvegicus) was 0%.
With `CN(CC(O)CNC(=O)C1CC1)c1ccccc1` (stereo not shown) [Compound 4, N1-cyclopropylcarbonyl-N2-methyl-N2-phenyl-1,3-diaminopropan-2-ol] the LD50 at 168 h (in vivo) was over 1470 mg/kg, the inhibition in vivo at 150 mg/kg [1, 2] was 36% and the inhibition in vivo at 300 mg/kg (secretion in the stomach; Rattus norvegicus) was 0%.
For `CN1[C@@H]2CC[C@H]1C[C@@H](OC(=O)C(CO)c1ccccc1)C2` (stereo partly shown) [A, atropine sulfate, reference compound], the inhibition in vivo at 12 mg/kg ([1]; Rattus norvegicus, po, dosage 12 mg/kg p.o., 1 h before 20 mg/kg indomethacine, 24 h) was 26%, the “effect on the ulcer (in words)” value [1, 3] was “does not have a sufficiently” and the inhibition in vivo at 0.5 mg/kg (secretion in the stomach; Rattus norvegicus, ip, read-out: Inhibition of secretion in the stomach, % inhibition) was 100%. The “inhibition of the secretion in the stomach (in words)” value (secretion in the stomach; [3]) was “strong inhibition”.
In the case of `CN(CC(O)CNC(=O)c1ccccc1F)c1ccc(Cl)c(Cl)c1` (stereo not shown) [Compound 18, N1-(2-fluorobenzoyl)-N2-methyl-N2-(3,4-dichlorophenyl)-1,3-diaminopropan-2-ol], the LD50 at 168 h (in vivo) is reported as over 1470 mg/kg, the inhibition in vivo at 75 mg/kg [1, 2] is reported as 33% and the inhibition in vivo at 300 mg/kg (secretion in the stomach; Rattus norvegicus) is reported as 0%.
In the case of `CN(CC(O)CNC(=O)c1ccco1)c1ccc(Cl)c(Cl)c1` (stereo not shown) [Compound 12, N1-furoyl-N2-methyl-N2-(3,4-dichlorophenyl)-1,3-diaminopropan-2-ol], the LD50 at 168 h (in vivo) is reported as over 1470 mg/kg, the inhibition in vivo at 75 mg/kg [1, 2] is reported as 29% and the inhibition in vivo at 300 mg/kg (secretion in the stomach; Rattus norvegicus) is reported as 0%.
For `CN(CC(O)CNC(=O)C1CCCCC1)c1ccccc1` (stereo not shown) [Compound 5, N1-cyclohexylcarbonyl-N2-methyl-N2-phenyl-1,3-diaminopropan-2-ol], the LD50 at 168 h (in vivo) was 3200 mg/kg, the inhibition in vivo at 150 mg/kg [1, 2] was 47% and the inhibition in vivo at 300 mg/kg (secretion in the stomach; Rattus norvegicus) was 0%.
`COc1ccc(C(=O)NCC(O)CN(C)c2ccc(F)cc2)cc1OC` (stereo not shown) [Compound 15, N1-(3,4-dimethoxybenzoyl)-N2-methyl-N2-(4-fluorophenyl)-1,3-diaminopropan-2-ol] gave an LD50 at 168 h (in vivo) of over 6810 mg/kg, an inhibition in vivo at 75 mg/kg [1, 2] of 32% and an inhibition in vivo at 300 mg/kg (secretion in the stomach; Rattus norvegicus) of 0%.
With `CCCCCCCCCCCCCCCC(=O)NCC(O)CN(C)c1ccc(Cl)cc1` (stereo not shown) [Compound 3, N1-hexadecanoyl-N2-methyl-N2-(4-chlorophenyl)-1,3-diaminopropan-2-ol] the LD50 at 168 h (in vivo) was over 6810 mg/kg, the inhibition in vivo at 150 mg/kg [1, 2] was 40% and the inhibition in vivo at 300 mg/kg (secretion in the stomach; Rattus norvegicus) was 0%.
For `COc1ccc(C(=O)NCC(O)CNc2ccccc2Cl)cc1OC` (stereo not shown) [Compound 14, N1-(3,4-dimethoxybenzoyl)-N2-(2-chlorophenyl)-1,3-diaminopropan-2-ol], the LD50 at 168 h (in vivo) was over 6700 mg/kg, the inhibition in vivo at 75 mg/kg [1, 2] was 33% and the inhibition in vivo at 300 mg/kg (secretion in the stomach; Rattus norvegicus) was 0%.
Compound `COCCN(CC(O)CNC(=O)c1ccco1)c1ccc(Cl)cc1` (stereo not shown) [Compound 13, N1-furoyl-N2-methoxyethyl-N2-(4-chlorophenyl)-1,3-diaminopropan-2-ol] has an LD50 at 168 h (in vivo) of over 1470 mg/kg, an inhibition in vivo at 75 mg/kg [1, 2] of 35% and an inhibition in vivo at 300 mg/kg (secretion in the stomach; Rattus norvegicus) of 0%.
